Results reported in article PMC6120666 (The EMBO Journal, 2018).

Columns and labels:
[1] = tested on: THP1Blue cells, TLR1/TLR2/TLR4; assay: THP1Blue NF-κB-SEAP reporter assay, non-NOD agonists (Pam3CSK4, LPS, HKLM); type: cell-based, human; settings: Pam3CSK4, LPS or HKLM
Description: For HEKBlue assay, cells were seeded into clear 96‐well plates at 7.5 × 10^3 cells/well and allowed to attach for 48 h. On the day of the experiment, media was changed to 100 μl of HEKBlue detection media (InvivoGen). Inhibitors were diluted and added in 0.5 μl DMSO 15 min prior to the addition of 1 ng/ml L18‐MDP (InvivoGen). After 8–9 h, absorbance at 620 nm was measured using Victor3V plate reader (Perkin Elmer, Waltham, MA). Values of media‐only wells were subtracted and %inhibition for each compound concentration relative to the DMSO/L18‐MDP‐treated controls was calculated. […] After induction, 20 μl of media was mixed with 180 μl of QUANTI‐Blue reagent (InvivoGen) and incubated at 37°C for 3–4 h, followed by absorbance measurement at 620 nm. IC50 values were calculated as described for HEKBlue assay. […]
For HEKBlue assay, cells were seeded into clear 96 well plates at 7.5x10^3 cells/well and allowed to attach for 48 h. […] After 8-9 h, absorbance at 620 nm was measured using Victor3V plate reader (Perkin Elmer, Waltham, MA). Values of media-only wells were subtracted and %inhibition for each compound concentration relative to the DMSO/L18-MDP-treated controls were calculated.
Inhibition values + StDev were fitted by non-linear regression using Prism software (GraphPad Software, La Jolla, CA) to calculate IC50 values. […] IC50 values were calculated as described for HEKBlue assay. […]

recombinant RIPK1 = target: T1, recombinant RIPK1 (Homo sapiens, UniProt Q13546); assay: RIPK1 ADPGlo kinase assay; type: biochemical; settings: concentrations up to 1 µM
T1 construct: made in house
T1 sequence (Q13546 whole entry, species assumed): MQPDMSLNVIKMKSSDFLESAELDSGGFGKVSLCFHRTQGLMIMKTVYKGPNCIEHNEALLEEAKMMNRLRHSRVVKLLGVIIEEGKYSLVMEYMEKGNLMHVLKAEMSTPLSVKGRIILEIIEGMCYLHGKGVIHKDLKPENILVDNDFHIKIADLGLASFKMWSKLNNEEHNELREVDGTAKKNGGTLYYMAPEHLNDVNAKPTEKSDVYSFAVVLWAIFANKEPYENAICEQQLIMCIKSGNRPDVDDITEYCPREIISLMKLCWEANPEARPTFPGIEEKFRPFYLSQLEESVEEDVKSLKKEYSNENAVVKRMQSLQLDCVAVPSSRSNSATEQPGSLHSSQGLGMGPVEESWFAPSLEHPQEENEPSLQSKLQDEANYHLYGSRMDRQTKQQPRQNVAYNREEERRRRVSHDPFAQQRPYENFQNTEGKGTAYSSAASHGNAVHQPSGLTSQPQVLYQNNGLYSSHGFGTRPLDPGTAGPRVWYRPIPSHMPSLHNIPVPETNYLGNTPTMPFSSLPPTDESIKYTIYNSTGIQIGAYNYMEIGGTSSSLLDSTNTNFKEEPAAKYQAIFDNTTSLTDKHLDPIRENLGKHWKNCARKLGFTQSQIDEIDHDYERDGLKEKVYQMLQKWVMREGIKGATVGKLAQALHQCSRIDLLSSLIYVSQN
Description: (§1) Cell viability was determined using CellTiter‐Glo assay (Promega). […] Kinase activities were determined using ADPGlo assay (Promega). • Structure of the active conformation of RIPK2 kinase domain in complex with AMP‐PNP (PDB ID: 5AR3). Figure depicts locations of the adenine and deep pockets. […] Key residues discussed in the text are shown as sticks (Lys/Glu Glu‐in bond—bottom left, catalytic Asp residues (Asp146/Asp164)—bottom right, R‐spine—right). P‐loop of CSLP18 structure is shown in yellow. Structured segment of activation segment (AS) observed in active conformation structures is shown in red. • Structure of RIPK2 kinase domain (gray ribbons) in complex with CSLP18 (orange) (PDB ID 6FU5). Sticks are shown for residues in the vicinity of the cavity surrounding the key inhibitor position R1. A 2Fo‐Fc electron density map contoured at 1 sigma is shown for the inhibitor and the residues lining the key region around inhibitor R^1 position. • Molecular docking model of RIPK2 kinase domain in complex with CSLP37 (yellow) based on RIPK2/CSLP18 structure (Fig 3D). […] Data information: Data in (A–C, G) represent the mean ± SEM of three independent experiments. **P < 0.01. Two‐way ANOVA was used to determine statistical significance. […]

recombinant RIPK3 = target: T2, recombinant RIPK3 (Homo sapiens, UniProt Q9Y572); assay: RIPK3 ADPGlo kinase assay; type: biochemical; settings: concentrations up to 1 µM
T2 construct: made in house
T2 sequence (Q9Y572 whole entry, species assumed): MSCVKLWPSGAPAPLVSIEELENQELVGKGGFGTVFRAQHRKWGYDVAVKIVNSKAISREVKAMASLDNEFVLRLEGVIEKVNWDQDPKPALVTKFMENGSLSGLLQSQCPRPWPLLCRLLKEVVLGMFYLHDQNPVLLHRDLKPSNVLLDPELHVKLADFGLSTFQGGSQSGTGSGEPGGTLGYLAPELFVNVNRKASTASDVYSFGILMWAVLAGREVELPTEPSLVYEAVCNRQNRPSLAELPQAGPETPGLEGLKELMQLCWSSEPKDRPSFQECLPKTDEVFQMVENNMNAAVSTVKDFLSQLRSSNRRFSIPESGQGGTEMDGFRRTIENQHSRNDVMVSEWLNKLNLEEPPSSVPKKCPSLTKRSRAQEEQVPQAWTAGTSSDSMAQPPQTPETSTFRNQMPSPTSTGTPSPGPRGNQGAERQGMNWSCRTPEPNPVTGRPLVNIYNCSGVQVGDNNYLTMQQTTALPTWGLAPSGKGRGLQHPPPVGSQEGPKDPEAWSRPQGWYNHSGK
Description: as §1

Question: How did the “effect on NF-κB responses to non-NOD agonists” value [1] turn out when CCCS(=O)(=O)Nc1cc(-c2cc(-c3ccc(N4CCNCC4)cc3)cnc2N)cc(F)c1OC [CSLP37] was run?
Answer: no detected effect

Question: What about the “inhibitory activity against RIPK1” value (recombinant RIPK1) of the same compound?
Answer: no inhibitory activity

Question: And the “inhibitory activity against RIPK3” value (recombinant RIPK3)?
Answer: no inhibitory activity

Question: What does the source list for CCCS(=O)(=O)Nc1cc(-c2cc(-c3ccc(N4CCNCC4)cc3)cnc2N)cc(OC)c1OC [CSLP43]?
Answer: effect on NF-κB responses to non-NOD agonists [1]: no detected effect; inhibitory activity against RIPK1 (recombinant RIPK1): no inhibitory activity; inhibitory activity against RIPK3 (recombinant RIPK3): no inhibitory activity
